Converted amounts (≈) assume the structure as drawn.
How the values were obtained:
[1] = tested on: Staphylococcus aureus ATCC 29213; test: MIC by broth microdilution, Staphylococcus aureus DRCC 035 (S); type: cell-based; conditions: ATCC29213, DRCC 035 = ATCC 29213, S, Mueller Hinton Broth, overnight 37° C., read-out: Antimicrobial Screening (MIC) Staphylococcus aureus 035 S
Experimental: (§1) Minimum Inhibiton Concentrations (MICs) were determined by broth microdilution technique as per the guidelines prescribed om the fifth edition of Approved Standards, NCCLS document M7-A5 Vol 20-No 2, 2000 Villinova, Pa.
(§2) Initial stock solution of the test compound was prepared in DMSO. Subsequent two fold dilutions were carried out in sterile Mueller Hinton Broth (Difco) (MHB).
(§3) Frozen cultures stocks were inoculated into 50 mL sterile MHB in 250 mL Erlyn Meyer flasks.
(§4) Flasks were incubated for 4 to 5 h at 35° C. on a rotary shaker at 150 rpm. Inoculum was prepared by diluting the culture in sterile MHB to obtain a turbidity of 0.5 McFarland standard. This corresponds to 1–2×10^8 CFU/mL. The stock was further diluted in sterile broth to obtain 1–2×10^6 CFU/mL. 50 μl of the above diluted inoculum was added from 1–10 wells. The plates were incubated overnight at 37° C.

[2] = tested on: Staphylococcus aureus ATCC 49951; test: MIC by broth microdilution, Staphylococcus aureus DRCC 213 (Smith S); type: cell-based; conditions: ATCC49951, DRCC 213 = ATCC 49951, Smith S, Mueller Hinton Broth, overnight 37° C., read-out: Antimicrobial Screening (MIC) Staphylococcus aureus 213 Smith S
Experimental: as §1, §2, §3, §4

[3] = tested on: Enterococcus faecium NCTC 12202; test: MIC by broth microdilution, Enterococcus sp DRCC 154 (R); type: cell-based; conditions: NCTC12202; DRCC 154 = Enterococcus faecium NCTC 12202, R; Mueller Hinton Broth, overnight 37° C.; read-out: Antimicrobial Screening (MIC) Enterococcus sp 154 R
Experimental: as §1, §2, §3, §4

[4] = tested on: Enterococcus faecalis NCTC 12201; test: MIC by broth microdilution, Enterococcus sp DRCC 153 (R); type: cell-based; conditions: NCTC12201; DRCC 153 = Enterococcus faecalis NCTC 12201, R; Mueller Hinton Broth, overnight 37° C.; read-out: Antimicrobial Screening (MIC) Enterococcus sp 153 R
Experimental: as §1, §2, §3, §4

[5] = tested on: Staphylococcus aureus ATCC 33591; test: MIC by broth microdilution, Staphylococcus aureus DRCC 019 (MRSA); type: cell-based; conditions: DRCC 019 = ATCC 33591, MRSA, Mueller Hinton Broth, overnight 37° C., read-out: Antimicrobial Screening (MIC) Staphylococcus aureus 019 MRSA
Experimental: as §1, §2, §3, §4

[6] = tested on: Escherichia coli ATCC 25922; test: MIC by broth microdilution, E coli DRCC 18 (S); type: cell-based; conditions: ATCC25922; DRCC 018 = Escherichia coli ATCC 25922, S; Mueller Hinton Broth, overnight 37° C.; read-out: Antimicrobial Screening (MIC) E coli 18 S
Experimental: as §1, §2, §3, §4

[7] = tested on: Enterococcus faecalis ATCC 29212; test: MIC by broth microdilution, Enterococcus sp DRCC 034 (S); type: cell-based; conditions: ATCC29212; DRCC 034 = Enterococcus faecalis ATCC 29212, S; Mueller Hinton Broth, overnight 37° C.; read-out: Antimicrobial Screening (MIC) Enterococcus sp 034 S
Experimental: as §1, §2, §3, §4

Work on `CC(=S)NCc1cn(-c2cc(F)c(N3CCOCC3)c(F)c2)nn1` [Example 51, N-[1-(3,5-Difluoro-4-morpholin-4-yl-phenyl)-1H-[1,2,3]triazol-4-ylmethyl]-thioacetamide] yielded an MIC [1] of 1 µg/mL (≈ 2.83 µM), an MIC [2] of 1 µg/mL (≈ 2.83 µM) and a melting point of 190 °C. For the same compound, the MIC [3] was 2 µg/mL (≈ 5.66 µM), the MIC [4] was 1 µg/mL (≈ 2.83 µM) and the MIC [5] was 1 µg/mL (≈ 2.83 µM). It also gave an MIC [6] of 32 µg/mL (≈ 90.5 µM) and an MIC [7] of 2 µg/mL (≈ 5.66 µM).

In the case of `CC(=S)NCc1cn(-c2ccc(N3CCOCC3)c(F)c2)nn1` [Example 52, N-[1-(3-Fluoro-4-morpholin-4-yl-phenyl)-1H-[1,2,3]triazol-4-ylmethyl]-thioacetamide], the MIC [1] was 2 µg/mL (≈ 5.96 µM), the MIC [2] was 2 µg/mL (≈ 5.96 µM) and the melting point was 192 °C. For the same compound, the MIC [3] was 2 µg/mL (≈ 5.96 µM), the MIC [4] was 2 µg/mL (≈ 5.96 µM) and the MIC [5] was 2 µg/mL (≈ 5.96 µM). It also gave an MIC [6] of 256 µg/mL (≈ 763 µM) and an MIC [7] of 2 µg/mL (≈ 5.96 µM).

With `COC(=S)NCc1cn(-c2cc(F)c(N3CCOCC3)c(F)c2)nn1` [Example 54, [1-(3,5-Difluoro-4-morpholin-4-yl-phenyl)-1H-[1,2,3]triazol-4-ylmethyl]-thiocarbamic acid O-methyl ester] the MIC [1] was 4 µg/mL (≈ 10.8 µM), the MIC [2] was 2 µg/mL (≈ 5.41 µM) and the melting point was 135 °C. The MIC [3] was 4 µg/mL (≈ 10.8 µM), the MIC [4] was 4 µg/mL (≈ 10.8 µM) and the MIC [5] was 2 µg/mL (≈ 5.41 µM). The MIC [6] was 32 µg/mL (≈ 86.6 µM) and the MIC [7] was 4 µg/mL (≈ 10.8 µM).

`COC(=S)NCc1cn(-c2ccc(N3CCOCC3)c(F)c2)nn1` [Example 55, [1-(3-Fluoro-4-morpholin-4-yl-phenyl)-1H-[1,2,3]triazol-4-ylmethyl]-thiocarbamic acid O-methyl ester] showed an MIC [1] of 4 µg/mL (≈ 11.4 µM), an MIC [2] of 4 µg/mL (≈ 11.4 µM) and a melting point of 148 °C. The MIC [3] was 8 µg/mL (≈ 22.8 µM), the MIC [4] was 4 µg/mL (≈ 11.4 µM) and the MIC [5] was 4 µg/mL (≈ 11.4 µM). It also gave an MIC [6] of 32 µg/mL (≈ 91.1 µM).

`COC(=S)NCc1cn(-c2cc(F)c(N3CCSCC3)c(F)c2)nn1` [Example 56, [1-(3,5-Difluoro-4-thiomorpholin-4-yl-phenyl)-1H-[1,2,3]triazol-4-ylmethyl]-thiocarbamic acid O-methyl ester] gave an MIC [1] of 2 µg/mL (≈ 5.19 µM), an MIC [2] of 1 µg/mL (≈ 2.59 µM) and a melting point of 127 °C. For the same compound, the MIC [3] was 8 µg/mL (≈ 20.8 µM), the MIC [4] was 2 µg/mL (≈ 5.19 µM) and the MIC [5] was 1 µg/mL (≈ 2.59 µM). It also gave an MIC [6] of 32 µg/mL (≈ 83 µM) and an MIC [7] of 2 µg/mL (≈ 5.19 µM).

For `COC(=S)NCc1cn(-c2cc(F)c(N3CCS(=O)(=O)CC3)c(F)c2)nn1` [Example 58, {1-[4-(1,1-Dioxo-1lambda*6*-thiomorpholin-4-yl)-3,5-difluoro-phenyl]-1H-[1,2,3]triazol-4-ylmethyl}-thiocarbamic acid O-methyl ester], the MIC [1] was 2 µg/mL (≈ 4.79 µM), the MIC [2] was 2 µg/mL (≈ 4.79 µM) and the melting point was 162 °C. The MIC [3] was 4 µg/mL (≈ 9.58 µM), the MIC [4] was 2 µg/mL (≈ 4.79 µM) and the MIC [5] was 1 µg/mL (≈ 2.4 µM). The MIC [6] was 32 µg/mL (≈ 76.7 µM) and the MIC [7] was 4 µg/mL (≈ 9.58 µM).

`COC(=S)NCc1cn(-c2ccc(N3CCSCC3)c(F)c2)nn1` [Example 59, [1-(3-Fluoro-4-thiomorpholin-4-yl-phenyl)-1H-[1,2,3]triazol-4-ylmethyl]-thiocarbamic acid O-methyl ester] showed an MIC [1] of 4 µg/mL (≈ 10.9 µM), an MIC [2] of 2 µg/mL (≈ 5.44 µM) and a melting point of 168 °C. It also gave an MIC [3] of 8 µg/mL (≈ 21.8 µM), an MIC [4] of 8 µg/mL (≈ 21.8 µM) and an MIC [5] of 2 µg/mL (≈ 5.44 µM). The MIC [6] was > 32 µg/mL and the MIC [7] was 8 µg/mL (≈ 21.8 µM).

`COC(=S)NCc1cn(-c2ccc(N3CC[S+]([O-])CC3)c(F)c2)nn1` [Example 60, {1-[3-Fluoro-4-(1-oxo-lambda*4*-thiomorpholin-4-yl)-phenyl]-1H-[1,2,3]triazol-4-ylmethyl}-thiocarbamic acid O-methyl ester] gave an MIC [1] of 2 µg/mL (≈ 5.22 µM), an MIC [2] of 1 µg/mL (≈ 2.61 µM) and a melting point of 198 °C. For the same compound, the MIC [3] was 4 µg/mL (≈ 10.4 µM), the MIC [4] was 1 µg/mL (≈ 2.61 µM) and the MIC [5] was 1 µg/mL (≈ 2.61 µM). For the same compound, the MIC [6] was > 32 µg/mL and the MIC [7] was 2 µg/mL (≈ 5.22 µM).

Compound `COC(=S)NCc1cn(-c2ccc(N3CCS(=O)(=O)CC3)c(F)c2)nn1` [Example 61, {1-[4-(1,1-Dioxo-1lambda*6*-thiomorpholin-4-yl)-3-fluoro-phenyl]-1H-[1,2,3]triazol-4-ylmethyl}-thiocarbamic acid O-methyl ester] has an MIC [1] of 4 µg/mL (≈ 10 µM), an MIC [2] of 2 µg/mL (≈ 5.01 µM) and a melting point of 184 °C. The MIC [3] was 8 µg/mL (≈ 20 µM), the MIC [4] was 2 µg/mL (≈ 5.01 µM) and the MIC [5] was 2 µg/mL (≈ 5.01 µM). The MIC [6] was > 32 µg/mL and the MIC [7] was 2 µg/mL (≈ 5.01 µM).

Work on `CSC(=S)NCc1cn(-c2ccc(N3CCOCC3)c(F)c2)nn1` [Example 67, [1-(3-Fluoro-4-morpholin-4-yl-phenyl)-1H-[1,2,3]triazol-4-ylmethyl]-dithiocarbamic acid methyl ester] yielded an MIC [1] of 1 µg/mL (≈ 2.72 µM), an MIC [2] of 1 µg/mL (≈ 2.72 µM) and an MIC [3] of 1 µg/mL (≈ 2.72 µM). The MIC [4] was 1 µg/mL (≈ 2.72 µM), the MIC [5] was 1 µg/mL (≈ 2.72 µM) and the MIC [6] was 32 µg/mL (≈ 87.1 µM). For the same compound, the MIC [7] was 1 µg/mL (≈ 2.72 µM).
